Columns and labels:
[1] = system: human sperm; assay: Effect of various concentrations on the motility of human sperm; format: cell-based; conditions: for concentration shown to be spermiostatic: motility of human sperm; for spermiostatic effects: lower concentrations of albumin and dextran
Excerpt: The effects of various concentrations of magnesium chloride, calcium chloride, ferrous sulfate, copper sulfate, and ferrous gluconate on the motility of human sperm were studied.

[2] = Effect on viscosity of cervical mucus; conditions: concentrations from 0.310% to a range of 1-2.5%

[Ca+2].[Cl-].[Cl-] [Calcium chloride]
concentration shown to be spermiostatic [1]: 25 mM

O=S(=O)([O-])[O-].[Cu+2] [Copper sulfate]
immobilization of sperm ([1]; 25 mM solutions): 93.3%
immobilization of sperm ([1]; 37.5 mM solutions): completely immobilized all the sperm
concentration shown to be spermiostatic [1]: 6.25 mM

O=C1O[C@H]([C@@H](O)CO)C(O)=C1O [L-ascorbic acid]
overall viscosity of the mucus [2]: increases in direct relationship with increasing concentrations

[Cl-].[Cl-].[Mg+2] [magnesium chloride]
concentration shown to be spermiostatic [1]: 35 mM

Ferrous sulfate
concentration that completely arrested the motility of human sperm ([1]; complete arrest of motility): 10 mM

albumin
sperm completely immobilized ([1]; 20% albumin): ~97%
sperm completely immobilized ([1]; 40% albumin): ~97%
sperm motility ([1]; albumin concentration 10%): decreased sperm motility almost close to that of 12.5 mM concentration of ferrous gluconate
spermiostatic effects [1]: not significant

dextran
sperm immobilized ([1]; 1.25% solution of dextran): ~95%
spermiostatic effects [1]: not significant

ferrous gluconate
immobilization of sperm ([1]; 25 mM solutions): 97.4%
immobilization of sperm ([1]; 37.5 mM solutions): completely immobilized all the sperm
concentration shown to be spermiostatic [1]: 12.5 mM

ferrous gluconate [dihydrate form of ferrous gluconate]
onset of spermiostatic effect ([1]; in the presence of the dihydrate form): immediate

Reference: patent publication US20200315960A1, “DRUG DELIVERY DEVICE AND METHOD” (BIORINGS LLC, priority 2019, published 2020)
